One data set deals with CCRF-CEM. In words: Cytostatic activity against human CEM cells after 72 hrs by Coulter counting analysis. The format is functional, cell-based.
In data set [1] the test system is Human alphaherpesvirus 1. As to the kind of experiment: Antiviral activity against Herpes simplex virus type 1 KOS assessed as reduction in virus-induced cytopathogenicity by cell-based assay. The format is functional, organism-based. Particulars: Human alphaherpesvirus 1, KOS. Background: Cytopathic effects are the visible damage that an infection or toxin causes in cultured cells.

The subject of data set [2] is Human alphaherpesvirus 1. In words: Antiviral activity against thymidine kinase-deficient ACV-resistant Herpes simplex virus type 1 KOS assessed as reduction in virus-induced cytopathogenicity by cell-based assay. In kind it is functional, organism-based. Conditions: Human alphaherpesvirus 1, KOS.
In data set [3] the test system is Human betaherpesvirus 5. In words: Antiviral activity against Human cytomegalovirus AD169 assessed as reduction in viral plaque formation. The format is functional, organism-based. Particulars: Human betaherpesvirus 5, AD169.
Another data set concerns HeLa. In words: Cytostatic activity against human HeLa cells after 72 hrs by Coulter counting analysis. The format is functional, cell-based.
The next data set has as its system L1210. As to the kind of experiment: Cytostatic activity against mouse L1210 cells after 48 hrs by Coulter counting analysis. Conditions: L1210, 48 h. The format is functional, cell-based.
The subject of data set [4] is Human betaherpesvirus 5. As to the kind of experiment: Antiviral activity against Human cytomegalovirus Davis assessed as reduction in viral plaque formation. The format is functional, organism-based. Particulars: Human betaherpesvirus 5, Davis.
Data set [5] is described as follows: Cytotoxicity against HEL cells assessed as growth inhibition. In kind it is cell-based. Conditions: human.
Data set [6] is described as follows: Cytotoxicity against HEL cells assessed as alteration in cellular morphology. The format is cell-based. Particulars: human.
The next data set concerns Human alphaherpesvirus 2. As to the kind of experiment: Antiviral activity against Herpes simplex virus type 2 G assessed as reduction in virus-induced cytopathogenicity by cell-based assay. In kind it is functional, organism-based. Conditions: Human alphaherpesvirus 2, strain G.
The test system of data set [7] is Human alphaherpesvirus 3. In words: Antiviral activity against Varicella zoster virus Oka assessed as reduction in virus-induced cytopathogenicity by cell-based assay. The format is functional, organism-based. Particulars: Human alphaherpesvirus 3, strain Oka vaccine.
The subject of data set [8] is Human alphaherpesvirus 3. In words: Antiviral activity against thymidine kinase-deficient Varicella zoster virus 07-1 assessed as reduction in virus-induced cytopathogenicity by cell-based assay. Conditions: Human alphaherpesvirus 3, 07-1. In kind it is functional, organism-based.

Structures are written as SMILES. Some results are limits rather than exact numbers.

As usually defined, the IC50 is the midpoint of a concentration-inhibition curve. The low end stands for inhibition by little substance, the high end for a need for much substance. Broadly, the EC50 is the concentration giving half of the maximal effect. The CC50 is the concentration at which the toxic effect on the cells reaches its halfway point. For the compound `C=C(C)[C@@H]1CC[C@]2(C(=O)O)CC[C@]3(C)[C@H](CC[C@@H]4[C@@]5(C)CC(=O)C(=O)C(C)(C)[C@@H]5CC[C@]43C)[C@@H]12`, the IC50 came to 13 µM in the data set with CCRF-CEM, 19 µM in the data set with HeLa and 12 µM in the data set on L1210. Further, the EC50 in the data set with Human alphaherpesvirus 1 [1] was 10 µM; in the data set on Human alphaherpesvirus 1 [2] it was 10 µM; in the data set with Human betaherpesvirus 5 [3] it was 3 µM; in the data set on Human betaherpesvirus 5 [4], 2.9 µM; in the data set with Human alphaherpesvirus 2, 10 µM; with Human alphaherpesvirus 3 [7] it was 10 µM. Further, the EC50 in the data set on Human alphaherpesvirus 3 [8] is 10 µM. Moreover, the CC50 in [5] was 51 µM. In addition, in [6], the MCC was determined as 20 µM.

`C=C(C)[C@@H]1CC[C@]2(C(=O)O)CC[C@]3(C)[C@H](CC[C@@H]4[C@@]5(C)Cc6n[nH]c(=S)nc6C(C)(C)[C@@H]5CC[C@]43C)[C@@H]12`: the IC50 in the data set on CCRF-CEM was 204 µM; with HeLa, 160 µM; in the data set on L1210, 196 µM. Also, the EC50 with Human betaherpesvirus 5 [3] and in the data set on Human betaherpesvirus 5 [4] was at least 20 µM each time. Also, the 50% cytotoxic concentration (CC50) in [5] was over 100 µM. Also, in data set [6], the MCC was over 100 µM.

`C=C(C)[C@@H]1CC[C@]2(C(=O)O)CC[C@]3(C)[C@H](CC[C@@H]4[C@@]5(C)Cc6nnc(SC)nc6C(C)(C)[C@@H]5CC[C@]43C)[C@@H]12`: the IC50 with CCRF-CEM was 2.6 µM; in the data set on HeLa, 7.3 µM; in the data set on L1210 it was 7.3 µM. Moreover, the EC50 with Human betaherpesvirus 5 [3] is 1.8 µM; in the data set on Human betaherpesvirus 5 [4] it was 2 µM. Also, the CC50 in data set [5] was 45 µM. Further, the MCC in data set [6] came to 20 µM.

In the case of `C#CCCSc1nnc2c(n1)C(C)(C)[C@@H]1CC[C@]3(C)[C@H](CC[C@@H]4[C@H]5[C@H](C(=C)C)CC[C@]5(C(=O)O)CC[C@]43C)[C@@]1(C)C2`, the IC50 was 1.2 µM in the data set on CCRF-CEM, 9.1 µM in the data set on HeLa and 4.9 µM in the data set with L1210. Also, the EC50 in the data set on Human betaherpesvirus 5 [3] is over 4 µM; in the data set with Human betaherpesvirus 5 [4], at least 4 µM. Moreover, the CC50 in data set [5] came out at 55 µM. Further, the MCC in [6] turned out to be 20 µM.

As to `C=C(C)[C@@H]1CC[C@]2(C(=O)O)CC[C@]3(C)[C@H](CC[C@@H]4[C@@]5(C)Cc6cc7c(nc6C(C)(C)[C@@H]5CC[C@]43C)SCC7)[C@@H]12`, the figures for the IC50 in the data set on CCRF-CEM, in the data set with HeLa and with L1210 were 3.8 µM, 10 µM and 7.8 µM, respectively. Moreover, the figures for the EC50 in the data set on Human betaherpesvirus 5 [3] and in the data set with Human betaherpesvirus 5 [4] were 8.6 µM and 11 µM, respectively. The CC50 in data set [5] came out at 74 µM.
